IC50 data for 2 compounds are collected here from ChEMBL document CHEMBL1154498, “Clinical stage EGFR inhibitors irreversibly alkylate Bmx kinase” (Bioorg Med Chem Lett, 2008).

Molecules are shown by their SMILES. pIC50: −log10 of the molar value. Some results are limits rather than exact numbers.

The target in test [1] is Receptor tyrosine-protein kinase erbB-2 (Homo sapiens, UniProt P04626). Kind of test: Inhibition of HER2.
For test [2], the target named is Tyrosine-protein kinase BTK (Homo sapiens, UniProt Q06187). Nature of the test: Inhibition of Btk.
Tyrosine-protein kinase BTK, sequence (Q06187 whole entry): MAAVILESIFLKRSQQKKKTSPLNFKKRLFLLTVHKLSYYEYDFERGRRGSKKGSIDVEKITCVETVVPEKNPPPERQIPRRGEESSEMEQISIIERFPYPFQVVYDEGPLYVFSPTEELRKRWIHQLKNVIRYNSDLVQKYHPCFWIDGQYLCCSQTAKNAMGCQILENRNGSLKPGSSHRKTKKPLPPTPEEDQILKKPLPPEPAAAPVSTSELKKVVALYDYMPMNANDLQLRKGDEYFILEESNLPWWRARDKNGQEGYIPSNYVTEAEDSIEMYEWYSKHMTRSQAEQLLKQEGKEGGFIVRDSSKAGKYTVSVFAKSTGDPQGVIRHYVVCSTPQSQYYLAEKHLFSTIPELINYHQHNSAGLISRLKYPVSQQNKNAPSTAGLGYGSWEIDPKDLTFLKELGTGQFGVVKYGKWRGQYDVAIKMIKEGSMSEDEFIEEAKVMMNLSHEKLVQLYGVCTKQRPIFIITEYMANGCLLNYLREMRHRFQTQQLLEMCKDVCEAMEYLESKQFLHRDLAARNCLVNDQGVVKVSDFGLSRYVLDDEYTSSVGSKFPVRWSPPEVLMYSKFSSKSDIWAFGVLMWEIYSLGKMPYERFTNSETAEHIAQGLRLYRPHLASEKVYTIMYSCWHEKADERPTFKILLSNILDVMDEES
For test [3], the target named is Receptor tyrosine-protein kinase erbB-4 (Homo sapiens, UniProt Q15303). Kind of test: Inhibition of HER4.
Receptor tyrosine-protein kinase erbB-4, sequence (Q15303 whole entry): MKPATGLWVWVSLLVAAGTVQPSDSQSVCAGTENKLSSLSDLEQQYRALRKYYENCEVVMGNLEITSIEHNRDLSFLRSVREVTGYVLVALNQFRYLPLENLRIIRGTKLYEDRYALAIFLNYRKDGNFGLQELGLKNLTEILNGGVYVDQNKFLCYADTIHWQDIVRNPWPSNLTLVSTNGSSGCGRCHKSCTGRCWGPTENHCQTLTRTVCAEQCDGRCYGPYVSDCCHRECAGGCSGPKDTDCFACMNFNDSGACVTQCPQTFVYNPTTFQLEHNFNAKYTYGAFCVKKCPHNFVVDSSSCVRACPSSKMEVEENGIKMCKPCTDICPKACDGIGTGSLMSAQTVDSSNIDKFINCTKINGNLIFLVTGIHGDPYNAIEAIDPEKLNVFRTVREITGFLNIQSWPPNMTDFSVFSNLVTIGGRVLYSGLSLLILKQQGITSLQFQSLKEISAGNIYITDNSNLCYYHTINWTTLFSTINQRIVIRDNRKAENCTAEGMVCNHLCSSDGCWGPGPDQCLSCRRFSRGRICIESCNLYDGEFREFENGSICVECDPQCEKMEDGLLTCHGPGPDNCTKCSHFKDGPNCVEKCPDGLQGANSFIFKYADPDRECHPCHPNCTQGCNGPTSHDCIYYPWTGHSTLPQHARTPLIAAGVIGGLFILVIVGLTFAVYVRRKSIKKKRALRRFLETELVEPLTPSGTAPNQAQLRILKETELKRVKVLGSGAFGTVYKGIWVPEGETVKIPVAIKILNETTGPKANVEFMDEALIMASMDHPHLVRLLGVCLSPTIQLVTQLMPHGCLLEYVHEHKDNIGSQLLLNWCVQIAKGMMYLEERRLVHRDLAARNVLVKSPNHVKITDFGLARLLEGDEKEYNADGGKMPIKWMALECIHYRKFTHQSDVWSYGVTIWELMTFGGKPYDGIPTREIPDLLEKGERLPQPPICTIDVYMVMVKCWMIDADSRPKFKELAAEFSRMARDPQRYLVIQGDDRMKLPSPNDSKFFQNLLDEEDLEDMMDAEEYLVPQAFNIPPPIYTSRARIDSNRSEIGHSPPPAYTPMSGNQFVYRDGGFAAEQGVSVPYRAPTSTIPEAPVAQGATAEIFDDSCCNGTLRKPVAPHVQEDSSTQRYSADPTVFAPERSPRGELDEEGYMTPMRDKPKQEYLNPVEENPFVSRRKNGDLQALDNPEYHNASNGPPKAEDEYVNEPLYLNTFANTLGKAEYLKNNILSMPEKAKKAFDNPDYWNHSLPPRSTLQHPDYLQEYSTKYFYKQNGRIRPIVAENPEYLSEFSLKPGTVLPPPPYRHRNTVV
Test [4] deals with T1, Tyrosine-protein kinase ITK/TSK (Homo sapiens, UniProt Q08881).
T1 sequence (Q08881 whole entry): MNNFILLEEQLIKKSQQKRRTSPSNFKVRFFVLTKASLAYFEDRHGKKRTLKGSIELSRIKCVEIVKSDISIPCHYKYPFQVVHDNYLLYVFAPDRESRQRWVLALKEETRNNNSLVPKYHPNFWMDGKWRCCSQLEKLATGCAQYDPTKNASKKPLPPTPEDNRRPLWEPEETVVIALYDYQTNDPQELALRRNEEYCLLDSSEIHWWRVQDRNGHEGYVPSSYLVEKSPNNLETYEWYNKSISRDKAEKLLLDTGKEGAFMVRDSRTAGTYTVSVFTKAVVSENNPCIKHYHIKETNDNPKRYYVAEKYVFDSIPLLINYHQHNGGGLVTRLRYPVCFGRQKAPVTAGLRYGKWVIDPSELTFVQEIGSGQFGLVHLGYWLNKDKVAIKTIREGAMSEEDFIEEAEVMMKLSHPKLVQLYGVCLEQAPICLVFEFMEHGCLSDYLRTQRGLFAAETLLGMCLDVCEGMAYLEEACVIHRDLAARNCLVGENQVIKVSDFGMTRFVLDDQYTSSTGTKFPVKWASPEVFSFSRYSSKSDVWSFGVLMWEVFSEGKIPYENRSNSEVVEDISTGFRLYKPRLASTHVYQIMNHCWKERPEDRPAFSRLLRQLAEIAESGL
Kind of test: Inhibition of Itk.

Test [5] addresses T2, Tyrosine-protein kinase JAK3 (Homo sapiens, UniProt P52333).
T2 sequence (P52333 whole entry): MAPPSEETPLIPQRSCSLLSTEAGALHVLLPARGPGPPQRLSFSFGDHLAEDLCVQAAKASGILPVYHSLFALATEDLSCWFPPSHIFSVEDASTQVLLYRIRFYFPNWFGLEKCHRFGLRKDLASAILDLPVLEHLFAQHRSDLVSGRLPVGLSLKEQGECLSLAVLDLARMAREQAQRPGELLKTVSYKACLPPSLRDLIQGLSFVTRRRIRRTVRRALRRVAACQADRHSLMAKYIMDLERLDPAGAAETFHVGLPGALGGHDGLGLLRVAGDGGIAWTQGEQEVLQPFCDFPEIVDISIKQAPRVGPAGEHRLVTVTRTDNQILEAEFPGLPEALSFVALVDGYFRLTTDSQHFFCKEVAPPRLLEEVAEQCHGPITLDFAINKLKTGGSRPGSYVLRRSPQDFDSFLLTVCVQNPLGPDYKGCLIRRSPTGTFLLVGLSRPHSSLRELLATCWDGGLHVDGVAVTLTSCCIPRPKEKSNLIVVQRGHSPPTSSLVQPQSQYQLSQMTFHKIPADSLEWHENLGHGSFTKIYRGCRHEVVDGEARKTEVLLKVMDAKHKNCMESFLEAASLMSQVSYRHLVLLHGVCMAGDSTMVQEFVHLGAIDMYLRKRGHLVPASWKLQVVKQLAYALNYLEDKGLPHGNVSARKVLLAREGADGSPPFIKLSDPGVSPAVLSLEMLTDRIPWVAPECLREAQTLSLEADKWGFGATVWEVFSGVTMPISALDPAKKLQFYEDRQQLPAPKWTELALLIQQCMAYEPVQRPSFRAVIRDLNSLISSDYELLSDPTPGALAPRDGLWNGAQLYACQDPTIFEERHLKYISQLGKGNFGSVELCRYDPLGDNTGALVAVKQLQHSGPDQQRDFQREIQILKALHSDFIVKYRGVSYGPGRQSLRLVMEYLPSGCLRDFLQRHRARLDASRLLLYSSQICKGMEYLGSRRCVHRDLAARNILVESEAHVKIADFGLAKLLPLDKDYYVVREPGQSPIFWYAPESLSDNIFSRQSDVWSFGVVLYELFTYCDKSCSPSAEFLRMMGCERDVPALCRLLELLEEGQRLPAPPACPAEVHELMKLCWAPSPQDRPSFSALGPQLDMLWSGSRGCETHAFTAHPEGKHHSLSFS
Nature of the test: Inhibition of JAK3.

For test [6], the target named is Tyrosine-protein kinase Blk (Homo sapiens, UniProt P51451). Kind of test: Inhibition of Blk.
Tyrosine-protein kinase Blk, sequence (P51451 whole entry): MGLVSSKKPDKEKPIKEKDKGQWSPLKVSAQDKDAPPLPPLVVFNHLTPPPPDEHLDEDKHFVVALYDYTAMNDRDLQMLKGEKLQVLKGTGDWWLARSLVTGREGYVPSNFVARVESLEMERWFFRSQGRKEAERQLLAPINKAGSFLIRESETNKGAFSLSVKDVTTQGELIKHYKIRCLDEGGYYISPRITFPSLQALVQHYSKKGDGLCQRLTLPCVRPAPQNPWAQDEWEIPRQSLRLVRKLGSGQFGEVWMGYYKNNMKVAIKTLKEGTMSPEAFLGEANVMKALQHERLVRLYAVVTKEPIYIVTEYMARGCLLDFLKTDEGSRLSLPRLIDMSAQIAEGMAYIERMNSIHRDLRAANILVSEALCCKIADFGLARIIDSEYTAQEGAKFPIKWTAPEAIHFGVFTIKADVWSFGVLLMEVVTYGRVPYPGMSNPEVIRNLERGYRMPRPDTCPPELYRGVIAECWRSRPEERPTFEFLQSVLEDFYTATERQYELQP
Test [7] concerns the target T3, Serine/threonine-protein kinase STK11 (Homo sapiens, UniProt Q15831).
T3 sequence (Q15831 whole entry): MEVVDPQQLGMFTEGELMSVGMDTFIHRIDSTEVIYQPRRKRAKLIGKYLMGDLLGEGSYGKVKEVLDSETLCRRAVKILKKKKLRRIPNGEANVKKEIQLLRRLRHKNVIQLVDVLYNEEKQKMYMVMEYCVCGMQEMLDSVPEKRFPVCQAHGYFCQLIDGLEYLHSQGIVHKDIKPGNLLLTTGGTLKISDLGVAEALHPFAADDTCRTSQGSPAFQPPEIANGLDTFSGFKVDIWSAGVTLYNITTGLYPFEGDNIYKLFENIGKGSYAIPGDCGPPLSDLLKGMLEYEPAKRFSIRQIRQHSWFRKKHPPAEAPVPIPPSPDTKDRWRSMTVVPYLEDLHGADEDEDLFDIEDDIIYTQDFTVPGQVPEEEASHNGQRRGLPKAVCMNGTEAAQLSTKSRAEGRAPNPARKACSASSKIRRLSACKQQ
Nature of the test: Inhibition of Lkb1.

Receptor tyrosine-protein kinase erbB-2, sequence (P04626 whole entry): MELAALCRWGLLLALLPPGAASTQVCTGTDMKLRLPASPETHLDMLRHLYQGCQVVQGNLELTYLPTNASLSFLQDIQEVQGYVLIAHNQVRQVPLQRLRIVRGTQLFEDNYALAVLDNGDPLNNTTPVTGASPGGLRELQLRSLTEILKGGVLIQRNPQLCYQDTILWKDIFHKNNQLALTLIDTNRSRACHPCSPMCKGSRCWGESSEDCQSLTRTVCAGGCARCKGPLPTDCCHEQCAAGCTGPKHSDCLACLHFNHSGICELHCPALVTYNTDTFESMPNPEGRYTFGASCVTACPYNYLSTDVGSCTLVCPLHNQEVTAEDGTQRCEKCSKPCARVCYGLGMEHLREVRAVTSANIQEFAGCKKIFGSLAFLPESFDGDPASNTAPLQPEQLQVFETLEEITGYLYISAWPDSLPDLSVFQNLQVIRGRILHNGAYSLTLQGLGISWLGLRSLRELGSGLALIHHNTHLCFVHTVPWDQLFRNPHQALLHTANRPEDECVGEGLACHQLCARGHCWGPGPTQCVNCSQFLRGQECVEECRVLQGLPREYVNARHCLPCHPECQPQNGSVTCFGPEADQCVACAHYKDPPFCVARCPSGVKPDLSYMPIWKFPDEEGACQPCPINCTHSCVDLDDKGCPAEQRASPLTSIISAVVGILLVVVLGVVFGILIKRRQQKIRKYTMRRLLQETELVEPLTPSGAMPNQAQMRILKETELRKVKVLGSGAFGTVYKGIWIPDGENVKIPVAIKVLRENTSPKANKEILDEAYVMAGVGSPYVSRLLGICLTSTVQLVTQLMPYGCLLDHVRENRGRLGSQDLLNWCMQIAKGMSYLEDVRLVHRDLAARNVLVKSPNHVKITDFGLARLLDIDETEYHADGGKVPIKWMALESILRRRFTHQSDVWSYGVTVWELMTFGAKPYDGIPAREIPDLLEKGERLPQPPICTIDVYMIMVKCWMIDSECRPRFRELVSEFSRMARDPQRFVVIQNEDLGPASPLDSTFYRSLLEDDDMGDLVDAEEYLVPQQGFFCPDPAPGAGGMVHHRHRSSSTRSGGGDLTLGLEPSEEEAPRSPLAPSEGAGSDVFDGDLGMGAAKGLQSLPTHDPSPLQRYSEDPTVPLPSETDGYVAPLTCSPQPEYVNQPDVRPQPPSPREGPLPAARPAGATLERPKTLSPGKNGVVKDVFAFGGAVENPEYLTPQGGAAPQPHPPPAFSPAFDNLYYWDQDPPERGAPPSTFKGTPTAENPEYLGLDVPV

By pIC50 is commonly meant the IC50 on a negative log10 scale, so that one unit is a factor of ten. A lower pIC50 goes with a high IC50. On to `C=CC(=O)Nc1ccc2ncnc(Nc3cccc(Br)c3)c2c1`, for which the pIC50 is 7.62 in test [1]; 5.23 in test [2]; 7.92 in test [3]; less than 4.52 in test [4]; 5.50 in test [5]; 5.26 in test [6]. In test [7], this compound gave a pIC50 of less than 5.00.

Compound `C=CC(=O)Nc1cc2c(Nc3ccc(F)c(Cl)c3)ncnc2cc1OCCCN1CCOCC1` [CANERTINIB] had a pIC50 in test [2] of 6.73.
